According to PubChem BioAssay AID248 (DTP/NCI, 2004):
Where “and” joins values, the source holds several entries; their conditions need not be identical. Identical values can stand only once. Inconclusive results and toxic doses are left out. No stated cut-off is given here; in the data, active means T/C of 150% or more; inactive means T/C below 125%.

System: L1210 leukemia ip in BDF1 mice, survival T/C
Experiment: NCI In Vivo Anticancer Drug Screen. Data for tumor model L1210 Leukemia (intraperitoneal) in B6D2F1 (BDF1) mice
Conditions: endpoint: mean survival time, higher = longer survival
Summary of the method: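 Read-out is survival time, reported as the treated-group measurement over the vehicle-control measurement.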

[1] = dose: 100.0 mg/kg/injection, schedule: Q01DX001 (ip), vehicle: carboxymethylcellulose (CMC)
[2] = dose: 200.0 mg/kg/injection, schedule: Q01DX001 (ip), vehicle: carboxymethylcellulose (CMC)
[3] = dose: 400.0 mg/kg/injection, schedule: Q01DX001 (ip), vehicle: carboxymethylcellulose (CMC)
[4] = dose: 50.0 mg/kg/injection, schedule: Q01DX009 (ip), vehicle: Klucel (hydroxypropylcellulose) (HPC)
[5] = dose: 100.0 mg/kg/injection, schedule: Q01DX009 (ip), vehicle: Klucel (hydroxypropylcellulose) (HPC)
[6] = dose: 100.0 mg/kg/injection, schedule: Q04DX003 (ip), vehicle: Klucel (hydroxypropylcellulose) (HPC)
[7] = dose: 200.0 mg/kg/injection, schedule: Q04DX003 (ip), vehicle: Klucel (hydroxypropylcellulose) (HPC)
[8] = dose: 100.0 mg/kg/injection, schedule: Q01DX009 (ip), vehicle: saline with Tween-80
[9] = dose: 100.0 mg/kg/injection, schedule: Q04DX002 (ip), vehicle: saline with Tween-80
[10] = dose: 200.0 mg/kg/injection, schedule: Q04DX002 (ip), vehicle: saline with Tween-80
[11] = dose: 400.0 mg/kg/injection, schedule: Q01DX009 (ip), vehicle: Klucel (hydroxypropylcellulose) (HPC)
[12] = dose: 100.0 mg/kg/injection, schedule: Q01DX001 (ip), vehicle: saline
[13] = dose: 200.0 mg/kg/injection, schedule: Q01DX001 (ip), vehicle: saline
[14] = dose: 400.0 mg/kg/injection, schedule: Q01DX001 (ip), vehicle: saline

Measured: T/C

O=C(O)Cn1cc(Cl)cc(Cl)c1=O
inactive: dose: 100.0 mg/kg/injection, schedule: Q04DX002 (ip), vehicle: Klucel (hydroxypropylcellulose) (HPC) 107 % of control | dose: 200.0 mg/kg/injection, schedule: Q04DX002 (ip), vehicle: Klucel (hydroxypropylcellulose) (HPC) 107 % of control | dose: 400.0 mg/kg/injection, schedule: Q04DX002 (ip), vehicle: Klucel (hydroxypropylcellulose) (HPC) 96 % of control

CC1CN(Cl)C(=O)N(Cl)C1=O (centres undefined)
inactive: dose: 10.0 mg/kg/injection, schedule: Q01DX001 (ip), vehicle: saline 96 % of control | dose: 20.0 mg/kg/injection, schedule: Q01DX001 (ip), vehicle: saline 98 % of control | dose: 40.0 mg/kg/injection, schedule: Q01DX001 (ip), vehicle: saline 92 % of control

CCOC(=O)c1ccc(S(=O)(=O)N(CC)CC)cc1
inactive: dose: 50.0 mg/kg/injection, schedule: Q01DX001 (ip), vehicle: carboxymethylcellulose (CMC) 89 % of control | [1] 96 % of control | [2] 91 % of control | [3] 102 % of control

CCCCCCOCCN1CCN(CCCN2c3ccccc3Sc3ccc(C(F)(F)F)cc32)CC1
inactive: dose: 12.5 mg/kg/injection, schedule: Q04DX003 (ip), vehicle: saline with Tween-80 106 % of control | dose: 25.0 mg/kg/injection, schedule: Q04DX003 (ip), vehicle: saline with Tween-80 101 % of control | dose: 50.0 mg/kg/injection, schedule: Q04DX003 (ip), vehicle: saline with Tween-80 101 % of control | dose: 100.0 mg/kg/injection, schedule: Q04DX003 (ip), vehicle: saline with Tween-80 93 % of control

COc1ccc(Cl)cc1N1C(=O)C2C(C1=O)C1(Cl)C(Cl)=C(Cl)C2(Cl)C1(Cl)Cl (centres undefined)
inactive: [4] 91 % of control | [5] 101 % of control | [6] 98 % of control | [7] 98 % of control

O=C(O)c1cc(O)cc(O)c1
inactive: dose: 25.0 mg/kg/injection, schedule: Q01DX009 (ip), vehicle: Klucel (hydroxypropylcellulose) (HPC) 100 % of control | [4] 97 % of control | [5] 100 % of control

CCN(CC)CCNc1ccc([N+](=O)[O-])cc1[N+](=O)[O-]
inactive: dose: 50.0 mg/kg/injection, schedule: Q01DX009 (ip), vehicle: saline with Tween-80 88 % of control | dose: 100.0 mg/kg/injection, schedule: Q01DX001 (ip), vehicle: Klucel (hydroxypropylcellulose) (HPC) 103 % of control | [8] 102 % of control | dose: 200.0 mg/kg/injection, schedule: Q01DX001 (ip), vehicle: Klucel (hydroxypropylcellulose) (HPC) 103 % of control

COc1ccc(Cl)cc1NC(=O)Oc1ccccc1C(C)C
inactive: dose: 100.0 mg/kg/injection, schedule: Q01DX001 (ip), vehicle: saline with Tween-80 96 % of control | [8] 96 % of control | [9] 95 % of control and 106 % of control | dose: 200.0 mg/kg/injection, schedule: Q01DX001 (ip), vehicle: saline with Tween-80 102 % of control | dose: 200.0 mg/kg/injection, schedule: Q01DX009 (ip), vehicle: saline with Tween-80 98 % of control | [10] 92 % of control and 109 % of control | dose: 400.0 mg/kg/injection, schedule: Q01DX001 (ip), vehicle: saline with Tween-80 87 % of control | dose: 400.0 mg/kg/injection, schedule: Q01DX009 (ip), vehicle: saline with Tween-80 89 % of control | dose: 400.0 mg/kg/injection, schedule: Q04DX002 (ip), vehicle: saline with Tween-80 95 % of control and 91 % of control

O=C(Nc1nccs1)Nc1ccc(Cl)cc1[N+](=O)[O-]
inactive: [5] 105 % of control | dose: 200.0 mg/kg/injection, schedule: Q01DX009 (ip), vehicle: Klucel (hydroxypropylcellulose) (HPC) 100 % of control | [11] 102 % of control

COC(=O)/C=C\C[P+](c1ccccc1)(c1ccccc1)c1ccccc1
inactive: dose: 12.5 mg/kg/injection, schedule: Q04DX003 (ip), vehicle: saline 103 % of control | dose: 25.0 mg/kg/injection, schedule: Q04DX003 (ip), vehicle: saline 97 % of control | dose: 50.0 mg/kg/injection, schedule: Q04DX003 (ip), vehicle: saline 100 % of control | [12] 101 % of control

O=S(=O)(Nc1cccc(C(F)(F)F)c1)c1cc(Cl)c(Cl)cc1Cl
inactive: dose: 50.0 mg/kg/injection, schedule: Q01DX009 (ip), vehicle: carboxymethylcellulose (CMC) 86 % of control | dose: 75.0 mg/kg/injection, schedule: Q04DX003 (ip), vehicle: carboxymethylcellulose (CMC) 94 % of control | dose: 100.0 mg/kg/injection, schedule: Q04DX002 (ip), vehicle: carboxymethylcellulose (CMC) 100 % of control and 102 % of control | dose: 150.0 mg/kg/injection, schedule: Q04DX003 (ip), vehicle: carboxymethylcellulose (CMC) 94 % of control | dose: 200.0 mg/kg/injection, schedule: Q04DX002 (ip), vehicle: carboxymethylcellulose (CMC) 97 % of control | dose: 300.0 mg/kg/injection, schedule: Q04DX003 (ip), vehicle: carboxymethylcellulose (CMC) 100 % of control | dose: 400.0 mg/kg/injection, schedule: Q04DX002 (ip), vehicle: carboxymethylcellulose (CMC) 101 % of control and 91 % of control

CC(C)(C)NC(=O)NCCc1ccccc1
inactive: [5] 106 % of control | [6] 96 % of control | [7] 97 % of control and 89 % of control | [11] 103 % of control | dose: 400.0 mg/kg/injection, schedule: Q04DX003 (ip), vehicle: Klucel (hydroxypropylcellulose) (HPC) 91 % of control and 92 % of control

O=[N+]([O-])c1cc(Cl)c(Cl)cc1NS(=O)(=O)c1ccccc1
inactive: dose: 25.0 mg/kg/injection, schedule: Q01DX Z (ip), vehicle: carboxymethylcellulose (CMC) 101 % of control | dose: 50.0 mg/kg/injection, schedule: Q01DX Z (ip), vehicle: carboxymethylcellulose (CMC) 98 % of control | dose: 100.0 mg/kg/injection, schedule: Q01DX Z (ip), vehicle: carboxymethylcellulose (CMC) 101 % of control | dose: 200.0 mg/kg/injection, schedule: Q01DX Z (ip), vehicle: carboxymethylcellulose (CMC) 96 % of control | dose: 275.0 mg/kg/injection, schedule: Q01DX015 (ip), vehicle: carboxymethylcellulose (CMC) 90 % of control | dose: 350.0 mg/kg/injection, schedule: Q01DX015 (ip), vehicle: carboxymethylcellulose (CMC) 98 % of control | dose: 425.0 mg/kg/injection, schedule: Q01DX015 (ip), vehicle: carboxymethylcellulose (CMC) 111 % of control | dose: 700.0 mg/kg/injection, schedule: Q01DX015 (ip), vehicle: carboxymethylcellulose (CMC) 86 % of control

CCOc1cc(C)c2cccc(C)c2n1
inactive: [1] 88 % of control | dose: 100.0 mg/kg/injection, schedule: Q01DX001 (ip), vehicle: other 95 % of control | [2] 96 % of control | dose: 200.0 mg/kg/injection, schedule: Q01DX001 (ip), vehicle: other 106 % of control | [3] 98 % of control

COC(=O)C1C2CC3C(OC(=O)C31C)C2I (centres undefined)
inactive: [12] 90 % of control | [13] 107 % of control | [14] 110 % of control

Cc1ccc(C(O)C(=O)O)c(C)c1 (centres undefined)
inactive: [9] 101 % of control | [10] 89 % of control

CC(=O)OCC1OC(n2ccc(=O)[nH]c2=O)C(OC(C)=O)C1OC(C)=O (centres undefined)
inactive: [12] 100 % of control | [13] 103 % of control | [14] 106 % of control
